According to ChEMBL document CHEMBL1133406, “Potent antagonists of gonadotropin releasing hormone receptors derived from quinolone-6-carboxamides” (Bioorg Med Chem Lett, 2000):

Legend:
[1] = molecular target: T1, Gonadotropin-releasing hormone receptor (Rattus norvegicus, UniProt P30969); assay: In vitro inhibition of GnRH stimulated release of luteinizing hormone from the rat primary pituitary cells.; assay type: functional, cell-based, Pituitary gland cell
T1 sequence (P30969 whole entry): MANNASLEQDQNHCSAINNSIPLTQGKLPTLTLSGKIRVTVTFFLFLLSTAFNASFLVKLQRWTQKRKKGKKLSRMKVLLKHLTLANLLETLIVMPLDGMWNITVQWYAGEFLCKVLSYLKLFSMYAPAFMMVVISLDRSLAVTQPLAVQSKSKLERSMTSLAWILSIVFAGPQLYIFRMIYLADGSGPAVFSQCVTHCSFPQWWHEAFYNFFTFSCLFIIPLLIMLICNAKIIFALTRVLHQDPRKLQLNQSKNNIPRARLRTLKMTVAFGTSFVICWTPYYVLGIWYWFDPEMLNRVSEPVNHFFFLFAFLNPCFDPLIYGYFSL

[2] = molecular target: T2, Gonadotropin-releasing hormone receptor (Homo sapiens, UniProt P30968); assay: In vitro inhibitory activity against […] CHO cells stably expressing human gonadotropin-releasing hormone receptor; assay type: cell-based
T2 sequence (P30968 whole entry): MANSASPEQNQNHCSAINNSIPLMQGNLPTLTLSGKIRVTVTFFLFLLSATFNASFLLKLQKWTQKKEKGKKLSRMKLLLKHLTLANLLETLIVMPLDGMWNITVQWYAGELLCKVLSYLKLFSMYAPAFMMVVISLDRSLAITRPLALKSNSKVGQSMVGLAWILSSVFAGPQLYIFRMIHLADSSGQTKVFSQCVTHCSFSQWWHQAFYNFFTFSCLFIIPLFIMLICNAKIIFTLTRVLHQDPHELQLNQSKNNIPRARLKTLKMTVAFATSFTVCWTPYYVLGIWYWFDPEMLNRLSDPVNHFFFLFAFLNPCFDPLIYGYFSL

[3] = molecular target: T2, Gonadotropin-releasing hormone receptor; assay: In vitro inhibition of GnRH-stimulated phosphatidyl inositol hydrolysis in CHO cells stably expressing gonadotropin-releasing hormone receptor.; assay type: functional, cell-based

SMILES	IC50 [1]	IC50 [2]	IC50 [3]
Cc1cc(C)cc(-c2c(O)nc3cc(Cl)c(C(=O)Nc4cnccn4)cc3c2OCCC2CCCCN2)c1 (stereo unspecified)	2200 nM	7 nM	16 nM
Cc1cc(C)cc(-c2c(O)nc3cc(Cl)c(C(=O)Nc4cc(Cl)ncn4)cc3c2OCCC2CCCCN2)c1 (stereo unspecified)	79.2 nM	1.4 nM	14.5 nM
Cc1cc(C)cc(-c2c(O)nc3cc(Cl)c(C(=O)Nc4ccnc(C)n4)cc3c2OCCC2CCCCN2)c1 (stereo unspecified)	87.2 nM	1.8 nM	33.3 nM
CCC(C)N(C(=O)c1cc2c(OCCC3CCCCN3)c(-c3cc(C)cc(C)c3)c(O)nc2cc1Cl)C(C)CC (stereo unspecified)	> 1280 nM	–	–
Cc1cc(C)cc(-c2c(O)nc3cc(Cl)c(C(=O)Nc4ccccn4)cc3c2OCCC2CCCCN2)c1 (stereo unspecified)	1260 nM	3.6 nM	19 nM
Cc1cc(C)cc(-c2c(O)nc3cc(Cl)c(C(=O)Nc4ccnc(C5CC5)n4)cc3c2OCCC2CCCCN2)c1 (stereo unspecified)	–	15 nM	250 nM
COc1nccc(NC(=O)c2cc3c(OCCC4CCCCN4)c(-c4cc(C)cc(C)c4)c(O)nc3cc2Cl)n1 (stereo unspecified)	–	9 nM	133 nM
Cc1cc(C)cc(-c2c(O)nc3cc(Cl)c(C(=O)Nc4cc(C)on4)cc3c2OCCC2CCCCN2)c1 (stereo unspecified)	513 nM	2.3 nM	77.5 nM
Cc1cc(C)cc(-c2c(O)nc3cc(Cl)c(C(=O)Nc4nncs4)cc3c2OCCC2CCCCN2)c1 (stereo unspecified)	–	32 nM	22 nM
Cc1cc(C)cc(-c2c(O)nc3cc(Cl)c(C(=O)Nc4nc[nH]n4)cc3c2OCCC2CCCCN2)c1 (stereo unspecified)	> 1280 nM	320 nM	775 nM
Cc1cc(C)cc(-c2c(O)nc3cc(Cl)c(C(=O)NCc4ccc5c(c4)OCO5)cc3c2OCCC2CCCCN2)c1 (stereo unspecified)	> 1280 nM	110 nM	591 nM
Cc1cc(C)cc(-c2c(O)nc3cc(Cl)c(C(=O)Nc4cnsn4)cc3c2OCC[C@@H]2CCCCN2)c1	23.9 nM	0.8 nM	5.9 nM
Cc1cc(C)cc(-c2c(O)nc3cc(Cl)c(C(=O)Nc4ccncn4)cc3c2OCC[C@@H]2CCCCN2)c1	96.5 nM	0.9 nM	5 nM
Cc1cc(C)cc(-c2c(O)nc3cc(Cl)c(C(=O)Nc4nnc(C)s4)cc3c2OCCC2CCCCN2)c1 (stereo unspecified)	> 1280 nM	28 nM	–
Cc1cc(C)cc(-c2c(O)nc3cc(Cl)c(C(=O)Nc4cc(C)nc(C)n4)cc3c2OCCC2CCCCN2)c1 (stereo unspecified)	–	40 nM	486 nM
Cc1cc(C)cc(-c2c(O)nc3cc(Cl)c(C(=O)Nc4cccnc4)cc3c2OCCC2CCCCN2)c1 (stereo unspecified)	> 1280 nM	32 nM	130 nM
Cc1cc(C)cc(-c2c(O)nc3cc(Cl)c(C(=O)Nc4cc(C)ncn4)cc3c2OCCC2CCCCN2)c1 (stereo unspecified)	167 nM	2.8 nM	44 nM
CCn1nccc1NC(=O)c1cc2c(OCCC3CCCCN3)c(-c3cc(C)cc(C)c3)c(O)nc2cc1Cl (stereo unspecified)	–	860 nM	977 nM
Cc1cc(C)cc(-c2c(O)nc3cc(Cl)c(C(=O)Nc4cc(C)ns4)cc3c2OCCC2CCCCN2)c1 (stereo unspecified)	521 nM	2.9 nM	21.5 nM
Cc1cc(C)cc(-c2c(O)nc3cc(Cl)c(C(=O)Nc4ccncn4)cc3c2OCCC2CCCCN2)c1 (stereo unspecified)	240 nM	3.2 nM	8.3 nM
Cc1cc(C)cc(-c2c(O)nc3cc(Cl)c(C(=O)Nc4ncccn4)cc3c2OCCC2CCCCN2)c1 (stereo unspecified)	> 1280 nM	290 nM	> 3200 nM
Cc1cc(C)cc(-c2c(O)nc3cc(Cl)c(C(=O)Nc4cnsn4)cc3c2OCCC2CCCCN2)c1 (stereo unspecified)	292 nM	2 nM	6.4 nM
Cc1cc(C)cc(-c2c(O)nc3cc(Cl)c(C(=O)Nc4ccc(N(C)C)cc4)cc3c2OCCC2CCCCN2)c1 (stereo unspecified)	–	10.9 nM	360 nM
CCN(CC)C(=O)c1cc2c(OCCC3CCCCN3)c(-c3cc(C)cc(C)c3)c(O)nc2cc1Cl (stereo unspecified)	> 1280 nM	–	–
Cc1cc(C)cc(-c2c(O)nc3cc(Cl)c(C(=O)Nc4ccncc4)cc3c2OCCC2CCCCN2)c1 (stereo unspecified)	1090 nM	3.8 nM	10.6 nM
Cc1cc(C)cc(-c2c(O)nc3cc(Cl)c(C(=O)Nc4cc(C)no4)cc3c2OCCC2CCCCN2)c1 (stereo unspecified)	> 1280 nM	23 nM	–
